Like-named read-outs stand apart in the source and are kept apart here.

In data set [1] the test system is A-549 (epithelial cancer cell line). Kind of data set: Antiproliferative assay, A-549. Type of data set: cell-based. As to conditions: Homo sapiens, A549; read-out: Antiproliferative Activity IC50 ± SEM A-549. As to the method: (§1) For ease of manipulation, the average (GI50) versus the four cancer cell lines was used.
(§2) To investigate the antiproliferative potential of 3a–e, 4a–c, and 5a–c, the MTT assay was carried out using various cell lines in accordance with previously reported procedures. See Appendix SA (Supplementary Materials). […]
(§3) ethylenediamine tetra acetic acid (EDTA) was used to passage the cells after every 2-3 days. 96-well flat-bottomed cell culture plates were used to seed the cells at a density of 10^4 cells mL-1. The medium was aspirated from all the wells of culture plates after 24 h followed by the addition of synthesized compounds (in 200 μL medium to yield a final concentration of 0.1% (v/v) dimethylsulfoxide) into individual wells of the plates.
(§4) Four wells were designated to a single compound. The plates were allowed to incubate at 37°C for 96 h. Afterwards, the medium was aspirated and 3-[4,5-dimethylthiazol-2-yl]-2,5-diphenyltetrazolium bromide (MTT) (0.4 mg/mL) in medium was added to each well and subsequently incubated for 3 h. The medium was aspirated and 150 μL dimethyl sulfoxide (DMSO) was added to each well. The plates were vortexed followed by the measurement of absorbance at 540 nm on a microplate reader. The results were presented as inhibition (%) of proliferation in contrast to controls comprising 0.1% 4.2.1.2. Assay for antiproliferative effect
(§5) To explore the antiproliferative potential of compounds propidium iodide fluorescence assay was performed using different cell lines such as Panc-1 (pancreas cancer cell […]
(§6) (epithelial cancer cell line), respectively. To calculate the total nuclear DNA, a fluorescent dye (propidium iodide, PI) is used which can attach to the DNA, thus offering a quick and precise technique. PI cannot pass through the cell membrane and its signal intensity can be considered as directly proportional to quantity of cellular
(§7) DNA. Cells whose cell membranes are damaged or have changed permeability are counted as dead ones. The assay was performed by seeding the cells of different cell lines at a density of 3000-7500 cells/well (in200μl medium) in culture plates followed […]
(§8) The medium was removed; the compounds were added to the plates at 10 μM concentrations (in 0.1% DMSO) in triplicates, followed by incubation for 48h. DMSO (0.1%) was used as control. After incubation, medium was removed followed by the addition of PI (25 μl, 50μg/mL in water/medium) to each well of the plates. At -80 °C, the plates were allowed to freeze for 24 h, followed by thawing at 25 °C. A fluorometer (Polar-Star BMG Tech) was used to record the readings at excitation and emission wavelengths of 530 and 620 nm for each well. The percentage cytotoxicity of compounds was calculated using the following formula:
(§9) Where ATC= Absorbance of treated cells and AC= Absorbance of control. […]
(§10) was used as positive control in the assay. […]

Data set [2] can be described thus: Cell viability assay (MTT) on normal mammary epithelial cells. Type of data set: cell-based. As to conditions: human, MCF-10A normal mammary gland epithelial cells, four days of incubation. On the procedure:
The viability test was performed on a normal human mammary gland epithelial cell line (MCF-10A). The MTT test was used to assess the viability of compounds 3a–e, 4a–c, and 5a–c.
The MTT assay was used to determine how the synthesized compounds affected the viability of mammary epithelial cells (MCF-10A). See Appendix SA (Supplementary Materials). […]
4.2. Biological evaluation
4.2.1. Cytotoxic activity using MTT Assay and evaluation of IC50
MTT assay was performed to investigate the effect of the synthesized compounds on mammary epithelial cells (MCF-10A). The cells were propagated in medium consisting of Ham's F-12 medium/ Dulbecco's modified Eagle's medium (DMEM) (1:1) supplemented with 10% foetal calf serum, 2 mM glutamine, insulin (10 μg/mL), hydrocortisone (500 ng/mL) and epidermal growth factor (20 ng/mL). Trypsin ethylenediamine tetra acetic acid (EDTA) was used to passage the cells after every 2-3 days. 96-well flat-bottomed cell culture plates were used to seed the cells at a density of 10^4 cells mL-1. The medium was aspirated from all the wells of culture plates after 24 h followed by the addition of synthesized compounds (in 200 μL medium to yield a final concentration of 0.1% (v/v) dimethylsulfoxide) into individual wells of the plates.
Four wells were designated to a single compound. The plates were allowed to incubate at 37°C for 96 h. Afterwards, the medium was aspirated and 3-[4,5-dimethylthiazol-2-yl]-2,5-diphenyltetrazolium bromide (MTT) (0.4 mg/mL) in medium was added to each well and subsequently incubated for 3 h. The medium was aspirated and 150 μL dimethyl sulfoxide (DMSO) was added to each well. The plates were vortexed followed by the measurement of absorbance at 540 nm on a microplate reader. […]

The test system of data set [3] is four human cancer cell lines (Panc-1, MCF-7, HT-29, A-549). In words: Antiproliferative assay, average (GI50) versus the four cancer cell lines. As to conditions: for GI50: Homo sapiens, average versus the four cancer cell lines; for fold less potent than 3e (GI50): relative to 3e GI50 29 nM. Type of data set: cell-based. As to the method: as §1, §2, §3, §4, §5, §6, §7, §8, §9, §10

The subject of data set [4] is MCF-7 (breast cancer cell line). Kind of data set: Antiproliferative assay, MCF-7. Type of data set: cell-based. As to conditions: Homo sapiens, MCF7; read-out: Antiproliferative Activity IC50 ± SEM MCF-7. On the procedure: as §1, §2, §3, §4, §5, §6, §7, §8, §9, §10
Data set [5] addresses T1, BRAF^V600E (Mus musculus, UniProt P28028, V585E).
T1 construct: Mouse full-length GST-tagged; GST; purchased Invitrogen PV3849
In words: V600E mutant BRAF kinase assay. Type of data set: biochemical. As to conditions: for IC50: read-out: BRAF^V600E Inhibition IC50 ± SEM. As to the method:
V600E mutant BRAF kinase assay was performed to investigate the activity of […]
Mouse full-length GST-tagged
BRAFV600E (7.5 ng, Invitrogen, PV3849) was pre -incubated with drug (1 µL) and assay dilution buffer (4 µL) for 6 0 min at 25 °C. In assay dilution buffer, a solution (5 µL) containing MgCl2 (30 mM), ATP (200 µM), recombinant human full length (200 ng) […] N-terminal His-tagged MEK1 (Invitrogen) was added to start the assay, after incubation for 25 min at 25 °C. The assay was stopped using 5X protein denaturing buffer (LDS) solution (5 µL). To further denature the protein, heat (70° C) was applied […]
electrophoresis (at 200 V). 10 µL of each reaction was loaded into the precast plates and electrophoresis was allowed to proceed. After completion of electrophoresis, the front part of the precast gel plate (holding hot ATP) was cut and afterwards cast -off.
The dried gel was developed using a phosphor screen. […]
Computerized Prism 5 program was used to statistically analyzed data using one-way ANOVA test followed by Tukey’s as post ANOVA for multiple comparison at P ≤.05.
Data were presented as mean ± SEM.

For data set [6], the system named is Panc-1 (pancreatic cancer cell line). In words: Antiproliferative assay, Panc-1. Type of data set: cell-based. As to conditions: Homo sapiens, read-out: Antiproliferative Activity IC50 ± SEM Panc-1. As to the method:
as §1, §2, §3, §4, §5, §6, §7, §8, §9, §10

For data set [7], the target named is T2, EGFR (Homo sapiens, UniProt P00533). Kind of data set: EGFR-TK inhibitory assay.
In data set [8] the test system is HT-29 (colon cancer cell line). Kind of data set: Antiproliferative assay, HT-29. Type of data set: cell-based. As to conditions: Homo sapiens, read-out: Antiproliferative Activity IC50 ± SEM HT-29. As to the method:
as §1, §2, §3, §4, §5, §6, §7, §8, §9, §10

Data set [9] addresses T2, EGFR. On the set-up: CD, amino acids 645–1186); His6 (N); made in house; host or cells: Sf-9 insect cells (baculovirus; pBlueBacHis2B / pFASTBacHTc. As to conditions: cited from earlier work.
Data set [10] relates to BRAF^V600E. As to conditions: cited from earlier work.

T2 sequence (P00533 669-1210): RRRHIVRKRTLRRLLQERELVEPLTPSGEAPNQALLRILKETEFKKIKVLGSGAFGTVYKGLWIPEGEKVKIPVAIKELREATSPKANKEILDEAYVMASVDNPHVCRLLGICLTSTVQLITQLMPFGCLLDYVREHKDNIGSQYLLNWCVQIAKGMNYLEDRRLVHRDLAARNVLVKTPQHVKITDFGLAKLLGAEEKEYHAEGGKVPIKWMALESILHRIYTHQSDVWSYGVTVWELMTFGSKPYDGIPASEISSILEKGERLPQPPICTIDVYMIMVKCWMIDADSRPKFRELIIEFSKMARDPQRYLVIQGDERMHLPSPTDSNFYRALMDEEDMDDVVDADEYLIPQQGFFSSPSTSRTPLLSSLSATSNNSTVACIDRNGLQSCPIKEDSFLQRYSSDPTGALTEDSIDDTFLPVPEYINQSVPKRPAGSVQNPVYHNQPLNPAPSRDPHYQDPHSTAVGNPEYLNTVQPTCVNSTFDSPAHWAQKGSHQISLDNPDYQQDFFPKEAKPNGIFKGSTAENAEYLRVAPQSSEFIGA
T1 sequence (P28028 whole entry V585E): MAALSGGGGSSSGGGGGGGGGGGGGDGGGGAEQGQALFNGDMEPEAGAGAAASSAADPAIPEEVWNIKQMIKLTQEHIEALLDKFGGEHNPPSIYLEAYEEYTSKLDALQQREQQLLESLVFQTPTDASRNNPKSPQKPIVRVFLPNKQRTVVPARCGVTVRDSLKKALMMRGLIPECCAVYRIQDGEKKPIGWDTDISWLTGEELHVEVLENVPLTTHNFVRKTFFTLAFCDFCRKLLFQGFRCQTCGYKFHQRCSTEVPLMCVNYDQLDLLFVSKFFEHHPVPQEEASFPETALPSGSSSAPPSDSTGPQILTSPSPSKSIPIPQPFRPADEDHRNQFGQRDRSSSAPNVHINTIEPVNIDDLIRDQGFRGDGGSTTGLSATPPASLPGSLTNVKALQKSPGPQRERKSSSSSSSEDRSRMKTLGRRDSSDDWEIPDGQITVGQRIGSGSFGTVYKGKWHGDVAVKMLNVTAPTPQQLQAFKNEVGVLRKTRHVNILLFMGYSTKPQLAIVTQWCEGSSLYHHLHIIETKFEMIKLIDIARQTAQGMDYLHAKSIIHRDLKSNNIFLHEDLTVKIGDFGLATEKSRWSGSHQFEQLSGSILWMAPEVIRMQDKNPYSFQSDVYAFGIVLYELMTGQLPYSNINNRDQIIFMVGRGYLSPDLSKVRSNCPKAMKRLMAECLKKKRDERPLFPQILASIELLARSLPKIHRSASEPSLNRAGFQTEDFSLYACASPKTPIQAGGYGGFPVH

With `CCOC(=O)c1[nH]c2ccc(Cl)cc2c1CNCCc1ccccc1` [Compound 3a, Ethyl 5-chloro-3-((phenethylamino)methyl)-1H-indole-2-carboxylate], the IC50 in data set [1] turned out to be 33 ± 3 nM; in data set [4] it was 35 ± 3 nM; at BRAF^V600E [5] it was 43 ± 4 nM; in data set [6], 36 ± 3 nM; on EGFR [7] it was 85 ± 6 nM; in data set [8], 36 ± 3 nM. For the same compound, the viability at 96 h, 50 µM in data set [2] stood at 87%. This compound also registered a GI50 in data set [3] of 35 nM. The “fold less potent than vemurafenib (BRAF^V600E IC50)” value on BRAF^V600E [5] (relative to vemurafenib IC50 = 30 nM) came to 1.4 fold.
As for `CCOC(=O)c1[nH]c2ccc(Cl)cc2c1CNCCc1ccc(N2CCCCC2)cc1` [Compound 3c, Ethyl 5-chloro-3-((4-(piperidin-1-yl)phenethylamino)methyl)-1H-indole-2-carboxylate], the 50% inhibitory concentration (IC50) was found to be 41 ± 4 nM in [1]; 45 ± 4 nM in data set [4]; 67 ± 6 nM on BRAF^V600E [5]; 42 ± 4 nM in [6]; 89 ± 6 nM against EGFR [7]; 44 ± 4 nM in [8]. The compound also had a viability at 96 h, 50 µM in data set [2] of 89%. This compound also gave a GI50 in data set [3] of 42 nM. Further, the “fold less potent than 3e (GI50)” value in data set [3] is 1.5 fold.
Consider `CCOC(=O)c1[nH]c2ccc(Cl)cc2c1CNCCc1ccc(N2CCCC2C)cc1` (stereo not shown) [Compound 3d, Ethyl 5-chloro-3-((4-(2-methylpyrrolidin-1-yl)phenethylamino)methyl)-1H-indole-2-carboxylate], for which the IC50 in data set [1] came to 37 ± 3 nM; in [4] it was 40 ± 4 nM; on BRAF^V600E [5] it was 54 ± 5 nM; in [6], 38 ± 3 nM; against EGFR [7], 82 ± 7 nM; in [8] it was 38 ± 3 nM. The compound further yielded a viability at 96 h, 50 µM in [2] of 90%. In [3], this compound had a GI50 of 38 nM. In addition, the “fold less potent than 3e (GI50)” value in [3] is 1.3 fold.
For the compound `O=C(O)c1[nH]c2ccc(Cl)cc2c1CNCCc1ccccc1` [Compound 4a, 5-Chloro-3-((phenethylamino)methyl)-1H-indole-2-carboxylic acid], the IC50 in [1] was found to be 75 ± 7 nM; in data set [4], 79 ± 7 nM; in data set [6], 78 ± 7 nM; in [8] it was 78 ± 7 nM. Also, the viability at 96 h, 50 µM in [2] was 91%. Moreover, growth in [3] was halved (GI50) at 78 nM.
Consider `O=C(O)c1[nH]c2ccc(Cl)cc2c1CNCCc1ccc(N2CCCC2)cc1` [Compound 4b, 5-Chloro-3-((4-(pyrrolidin-1-yl)phenethylamino)methyl)-1H-indole-2-carboxylic acid], for which the concentration for half-maximal inhibition (IC50) in [1] was 65 ± 6 nM; in data set [4] it was 69 ± 6 nM; in data set [6] it was 68 ± 6 nM; in data set [8], 68 ± 6 nM. In addition, the viability at 96 h, 50 µM in data set [2] came to 89%. In data set [3], this compound returned a GI50 of 68 nM.
On to `O=C(O)c1[nH]c2ccc(Cl)cc2c1CNCCc1ccc(N2CCCCC2)cc1` [Compound 4c, 5-Chloro-3-((4-(piperidin-1-yl)phenethylamino)methyl)-1H-indole-2-carboxylic acid], for which the IC50 came out at 69 ± 7 nM in data set [1], 73 ± 7 nM in data set [4], 72 ± 7 nM in data set [6] and 75 ± 7 nM in [8]. The compound further registered a viability at 96 h, 50 µM in [2] of 87%. Also, the GI50 in [3] is 72 nM.
With `O=C1c2[nH]c3ccc(Cl)cc3c2CN1CCc1ccccc1` [Compound 5a, 7-Chloro-2-phenethyl-1,2-dihydropyrrolo [3,4-b]indol-3(4H)-one], the 50% inhibitory concentration (IC50) came out at 46 ± 4 nM in [1], 48 ± 5 nM in [4], 50 ± 5 nM in data set [6] and 49 ± 5 nM in data set [8]. The same compound gave a viability at 96 h, 50 µM in data set [2] of 89%. In data set [3], this compound showed a GI50 of 48 nM.
As to `O=C1c2[nH]c3ccc(Cl)cc3c2CN1CCc1ccc(N2CCCC2)cc1` [Compound 5b, 7-Chloro-2-(4-(pyrrolidin-1-yl)phenethyl)-1,2-dihydropyrrolo [3,4-b]indol-3(4H)-one], the IC50 in [1] came to 58 ± 5 nM; in [4], 61 ± 6 nM; in data set [6], 64 ± 6 nM; in data set [8], 66 ± 6 nM. For the same compound, in [2], the viability at 96 h, 50 µM came to 89%. This compound also showed a GI50 in data set [3] of 62 nM.
In the case of `O=C1c2[nH]c3ccc(Cl)cc3c2CN1CCc1ccc(N2CCCCC2)cc1` [Compound 5c, 7-Chloro-2-(4-(piperidin-1-yl)phenethyl)-1,2-dihydropyrrolo [3,4-b]indol-3(4H)-one], the IC50 came to 51 ± 5 nM in [1], 53 ± 5 nM in [4], 55 ± 5 nM in data set [6] and 57 ± 5 nM in [8]. This compound also yielded a viability at 96 h, 50 µM in data set [2] of 91%. The same compound returned a GI50 in [3] of 54 nM.
As to `O=C(NCCc1ccc(N2CCOCC2)cc1)c1[nH]c2ccc(Cl)cc2c1CO` [Compound IVc], the IC50 at EGFR [9] is 120 nM.
`Cc1c2cc(Cl)ccc2n2cc(Cc3ccccc3)[nH]c(=O)c12` [Compound V]: in the data set on BRAF^V600E [10], the 50% inhibitory concentration (IC50) is 100 nM.
For the compound `CCOCc1c2n(c3ccc(Cl)cc13)C(=O)CN(CCc1ccc(N3CCOCC3)cc1)C2=O` [VII], the figures for the IC50 in the data set with BRAF^V600E [10] and at EGFR [9] were 45 nM and 32 nM, respectively.

Source of the values: PMC9921301, “Design, Synthesis, and Antiproliferative Activity of New 5-Chloro-indole-2-carboxylate and Pyrrolo[3,4-b]indol-3-one Derivatives as Potent Inhibitors of EGFR^T790M/BRAF^V600E Pathways” (Molecules, 2023).
